Test results as given in patent publication US20120225889A1, “USE OF MACROCYCLIC LACTONE DERIVATIVES FOR THE TREATMENT OF INFLAMMATORY DISORDERS” (PIRAMAL LIFE SCIENCES LIMITED, priority 2010, published 2012).

Assays:
IL-6 [1] = assay: Gene expression profile using RTQ-PCR: IL-6; format: cell-based, human; conditions: 3 μM
Method: The effect of the compound of example 7 was measured in stimulated untreated cells from the monocytic cell line (THP-1), human monocytes and synovial cells from rheumatoid arthritis patient. The effect of the compound in the THP-1 cell line was measured in terms of gene expression and was expressed as fold changes as compared to the cell stimulated control with no drug treatment.
THP-1 cells, human monocytes and synovial cells were treated with compound of example 7 or vehicle (0.5% DMSO). Total RNA isolation using a commercial RNA extraction kit (Qiagen Corporation, Germany) The first-strand cDNA was synthesized from total RNA using first strand cDNA synthesis kit from Invitrogen Corporation (California, USA). This was followed by real time quantitative polymerase chain reaction (RTQ PCR) using gene specific primers and standard thermal program of initial denaturation at 95° C. for 5 min and cycles of 95° C. for 10 seconds, followed by 60° C. for 30 seconds (Realplex PCR machine from Eppendorf, Germany). Quantitative measurement of products made during PCR cycles was normalized against a housekeeping gene (Actin) and was used to measure the gene expression as fold changes as compared to respective control.

TNF-α = assay: Synovial tissue assay (spontaneous production): TNF-α; format: cell-based; conditions: Homo sapiens, synovial tissue cells from rheumatoid arthritis patients, 16 h, read-out: IC50 of TNF-α inhibition
Source text: The ability of compounds of the present invention to inhibit spontaneous production of cytokines from freshly isolated human synovial tissue cells was designed as in reference, Lancet, 29, 244-247, (1989) the disclosure of which is incorporated by reference for the teaching of the assay.
Synovial tissue was obtained from rheumatoid arthritis patients undergoing knee replacement surgery. […] Subsequently, the cells were washed 3 times with RPMI 1640 culture medium and resuspended in complete medium (RPMI 1640 culture medium supplemented with 5% FBS and 5% human serum-AB+(Sigma, USA) at a concentration of 1×10^6 cells/mL. The viability of synovial cells was determined by trypan blue dye exclusion and was uniformly ≧98%. For the experiment, 100 μL of cell suspension was added to the wells of a 96-well culture plate (Nunc, USA). Following cell plating, 100 μL of the culture medium and 1 μL of various concentrations of the test compound (test compound was dissolved in DMSO to obtain a stock solution of 20 mM. […] The IC50 values were calculated by a nonlinear regression method using the GraphPad software (Prism 3.03).

IL-6 [2] = assay: Cytokine release assay in hPBMCs: IL-6; format: cell-based; conditions: Homo sapiens
Method: hPBMCs were obtained from healthy donors by centrifugation of heparinized venous blood over Ficoll/Hypaque solution (Histopaque-1077, Sigma, USA). Isolated hPBMCs were suspended in RPMI 1640 culture medium supplemented with 10% FBS and seeded at a density of 50,000 cells/well in a 96-well plate (Nunc, USA). The cells were incubated at 37° C., 5% CO2 for a period of 24 h. These cells were used for the lymphocyte proliferation as well as cytokine release assay.
The plated cells were treated with different concentrations of the test compound (prepared as mM stock in DMSO and diluted with DMSO to achieve the following final concentrations in the assay: 100, 10, 1, 0.1, 0.01, 0.001, 0.0001, 0.00001 and 0.000001 μM) and incubated for 30 min. The cells were then stimulated with PHA (prepared as 1 mg/mL stock in RPMI 1640 culture medium and used at a final concentration of 5 μg/mL). FK506 was used as a standard. The plates were incubated at 37° C., 5% CO2 for 48 h. The cytokines in the supernatant collected were detected using ELISA kit (BD biosciences, USA). The cytokines evaluated in the assay were TNF-α, IL-2, IL-6, and IFN-γ.

IL-6 [3] = assay: Screening in LPS stimulated THP-1 cells: IL-6; format: cell-based; conditions: Homo sapiens, 24 h, ELISA
Method: IL-6 (BD Biosciences, USA) production by LPS (Escherchia coli 0127:B8, Sigma, USA) in THP-1 cells (ATCC number: TIB202) was designed as in reference, Journal of Immunology, 151, 5631-5638, (1993), the disclosure of which is incorporated by reference for the teaching of the assay.
THP-1 cells were cultured in RPMI 1640 culture medium (Gibco BRL, UK) containing 100 U/mL penicillin and […] streptomycin, (100× solution, Sigma, USA) containing 10% FBS (JRH Biosciences, USA). 25,000 cells were seeded per well in 96-well plate (Nunc, USA). The cells were differentiated with PMA (Sigma, USA, prepared as 100 μg/mL stock in RPMI and was diluted to 5 ng/mL). The test compound (prepared as 20 mM stock in DMSO and diluted with DMSO to achieve the following final concentrations in the assay: 100, 10, 1, 0.1, 0.01, 0.001 and 0.0001 μM) or vehicle (0.5% DMSO) were added to the cells and the cells were incubated for 30 min at 37° C. LPS (Sigma, USA, prepared as 1 mg/mL stock in PBS) was added to achieve a final concentration of 1 μg/mL. Plates were incubated at 37° C. for 24 h at 5% CO2. Supernatants were harvested, and assayed for TNF-α and IL-6 by ELISA as described by the manufacturer (BD Biosciences, USA). Percent inhibition of cytokine release compared to the control was calculated. The IC50 values were calculated by a nonlinear regression method.

`C/C=C/C(O)C(C)/C=C/C(=N\O)C(C)C(O)C(C)C1OC(=O)/C(OC)=C/C(C)=C/C(C)C(O)C(CC)C(O)C(C)C/C(C)=C/C=C/C1OC` (stereo not shown) [Compound of example 7, (3Z,5E,13E,15E)-18-((5Z,6E,10E)-3,9-Dihydroxy-5-(hydroxymino)-4,8-dimethyldodeca-6,10-dien-2-yl)-9-ethyl-8,10-dihydroxy-3,17-dimethoxy-5,7,11,13-tetramethyl oxacyclooctadeca-3,5,13,15-tetraen-2-one] was tested, and the IL-6 gene expression (IL-6 [1]; Human monocytes, 3 h, ± SE, N = 3) was −1.1 + 1.0 log fold change, the IL-6 gene expression (IL-6 [1]; Synovial cells, 12 h, N = 1) was −4.0 log fold change and the IL-6 gene expression (IL-6 [1]; THP-1 cells, 12 h, ± SE, N = 3) was −1.5 + 1.0 log fold change. The IC50 (TNF-α) was 19000 nM, the IC50 (IL-6 [2]; Table 3: PHA-PMA induced hPBMC's, 48 h, read-out: IL-6 IC50) was 10 nM and the IC50 (IL-6 [2]; Table 4: mitogen stimulated production from hPBMC's, read-out: IL-6 (IC50 μM)) was 0.007 nM. The IC50 (IL-6 [3]) was 40 nM.
